Results as given in patent US7815895B2, “Method for activating efferent sympathetic nerves innervating adipose tissues to improve obesity and symptoms associated therewith” (priority 2007, dated 2010).

Legend:
[1] = test system: PPARγ2-mice and LacZ-mice; assay: Bupranolol loading test (serum FFA); assay type: in vivo; conditions: fed state, 10 mg/kg intraperitoneal
Protocol: (A) Plasma lipid parameters (left: total cholesterol, middle: triglyceride (TG), right: free fatty acids (FFA)) in LacZ-mice (white bars) and PPARγ2-mice (black bars) on day 7 after adenoviral administration were measured in the 10 hour fasted state. (B-C) Relative amounts of UCP1 (left), PGC-1α (middle) and HSL (right) in brown adipose tissue (B) and epididymal fat tissue (C) from ad libitum-fed LacZ-mice (white bars) and PPARγ2-mice (black bars) on day 7 after adenoviral administration. (D) A pan-β adrenergic blocker, bupranolol, was injected intraperitoneally into LacZ-mice (open circles) and PPARγ2-mice (closed circles) in the fed state, on day 5 after adenoviral administration, followed by measurement of serum FFA levels. Data were expressed as percentages of serum FFA levels immediately before intraperitoneal bupranolol loading (10 mg/kg of body weight). Date are presented as mean±SD. **P<0.01 and *P<0.05, compared to control mice, by unpaired t test.
Glucose tolerance tests were performed on mice fasted for 10 hours as previously described (Y. Ishigaki et al., Diabetes 54, 322 (2005)). Insulin tolerance tests were performed on ad libitum fed mice. […] Serum FFA levels were measured immediately before and at 30 and 60 min after injection of inraperitoneal bupranolol (10 mg/kg of body weight, Kaken Pharmaceutical Co., Ltd. Tokyo, Japan).

[2] = test system: Male SD rats with high fat diet-induced obesity; assay: Perivagal capsaicin or vehicle 7 days prior to LacZ or PPARγ2 adenovirus; assay type: in vivo; conditions: perivagal capsaicin treatment
Protocol: Table 1. Afferent vagal activation from the liver is involved in remote effects of hepatic PPARγ2 expression. (Upper Column) Mice were subjected to hepatic vagotomy or sham operation 7 days prior to administration of LacZ or PPARγ2 adenovirus. Resting oxygen consumption (VO2) was measured on day 3 after adenoviral injection. Mice were sacrificed after a 10 hour fast on day 7 after adenoviral injection. (Lower Column) Male SD rats with high fat diet-induced obesity were subjected to application of capsaicin or vehicle to the vagal hepatic branch 7 days prior to administration of LacZ or PPARγ2 adenovirus. Seven days after adenoviral administration, epididymal fat weights were determined. P values: compared to LacZ-mice, by unpaired t test. n.s.: not significant.
Hepatic vagotomy involves dissection of both afferent and efferent vagal branches innervating the liver. To determine whether the remote effects of hepatic PPARγ2 expression are mediated by the afferent vagus, we applied a specific afferent neurotoxin, capsaicin, to the hepatic branch of the vagus of diet-induced obese male SD rats. Seven days after perivagal application of capsaicin or vehicle, we administered recombinant adenovirus encoding LacZ or PPARγ2. […] These observations indicate selective de-afferentation of the hepatic branch of the vagus. […]

[3] = test system: hepatic branch of the vagus; assay: Perivagal capsaicin: vagal nerve immunohistochemistry and transmission electron microscopy; assay type: in vivo, rats; conditions: 7 days after perivagal application
Protocol: SD rats were treated with perivagal application of vehicle or capsaicin, 7 days prior to removal of the hepatic vagal nerves from vehicle-treated rats (veh) and capsaicin-treated rats (cap), and the esophgeal branch of the posterior vagal trunk from capsaicin-treated rats (eso). (A) Immunohistochemistry of the vagal nerves with anti-calcitonin gene-related peptide (CGRP) and anti-S100 antibodies. Magnification: ×400. The graphs show immunohistological staining intensities and the data are expressed as percentages of the intensities in vehicle-treated vagal nerve. (B) Transmission electron microscopy of the vagal nerves. While myelinated fibers are intact (arrows), unmyelinated fibers have been selectively degraded in perivagal capsaicin-treated nerves (arrowheads). Representative images from two rats of each group are shown.
After 4 weeks of a high-fat diet starting at 5 weeks of age, male SD rats were subjected to selective hepatic vagal afferent blockade. The hepatic branch of this vagal trunk was exposed as described above, then loosely tied with a cotton string immersed with or without capsaicin (Sigma Chemical Co, St Louis, Mo., USA) dissolved in olive oil (5% wt/vol). The cotton string was removed 30 min later and the abdominal incision was closed. Seven days after perivagal application of capsaicin or vehicle, recombinant adenovirus encoding LacZ or PPARγ2, at a dose of 6.5×10^8 plaque forming units (PFU), was injected via the tail vein.
Livers, WAT and BAT were removed and fixed with 10% formalin and embedded in paraffin. Tissue sections were stained with hematoxylin eosin. Total adipocyte areas were traced manually. Brown and white adipocyte diameters were measured in 150 or more cells per mouse in each group. For vagal nerve immunohistochemistry, SD rats were anesthetized with pentobarbiturate (60 mg/kg), and then perfused transcardially with saline and sequentially with 4% paraformaldehyde in 0.2 M phosphate buffer (PB; pH 7.4). […] The intensities of bands were quantified with the NIH image 1.62 program. […]

Row | SMILES | serum FFA ([1]; LacZ-mice) | serum FFA ([1]; PPARγ2-mice) | hepatic PPARγ2 expression-induced decrease in WAT weight [2] | unmyelinated fibers in the vagal hepatic branch (electron microscopy) [3] | Expression of calcitonin gene-related peptide in vagal nerve ([3]; versus vehicle) | immunoreactivity for S100 proteins ([3]; versus vehicle)
1 | Cc1ccc(Cl)c(OCC(O)CNC(C)(C)C)c1 (stereo not drawn) [bupranolol] | no effect | decreased |  |  |  | 
2 | COc1cc(CNC(=O)CCCC/C=C/C(C)C)ccc1O [capsaicin] |  |  | completely blocked | selective degradation | markedly decreased | similar
